In one data set the target is CYP3A4 (Homo sapiens, UniProt P08684). Put plainly: Cytochrome inhibition, fluorometric microtiter plate assay. The conditions noted are these: CYP3A4 cytochrome inhibition (IC50, concentrations in μM for 50% inhibition), human recombinant CYP3A4, substrate BFC, compounds of the invention. In kind it is in vitro ADME. How it is done:
(§1) The ability of drug in human to inhibit the catalytic activity of cytochrome P-450 isoforms was assayed using microtiter plate-based, fluorometric assays for the activities of the five human major CYP forms. Inhibition potential was determined in vitro after incubation of fluorescent model substrates over various incubation time with human recombinant cytochrome isoforms in the absence or in presence of increasing concentrations of test molecules (from 1 nM to 100 μM), in comparison with specific CYP isoform inhibitors.
(§2) Incubation of drug was carried out at 37° C.±0.5° C. under agitation in the presence of human recombinant cytochrome P-450 isoforms and a NADPH generating system. The incubation conditions for each cytochrome isoform were as follows: […]

For the next data set, the target named is CYP2D6 (Homo sapiens, UniProt P10635). Described as above. It counts as in vitro ADME. As to conditions: CYP2D6 cytochrome inhibition (IC50, concentrations in μM for 50% inhibition), human recombinant CYP2D6, substrate AMMC, compounds of the invention. Here is the method:
as §1, §2

For data set [1], the target named is human histamine H3 receptors (Homo sapiens, UniProt Q9Y5N1). Put plainly: H3 binding ([125I]iodoproxyfan displacement on membranes). The conditions noted are these: compounds of the invention; membranes expressing human H3 receptors. How it is done: Membranes expressing human histamine H3 receptors were incubated 1 hour at room temperature in binding buffer containing 50 mM Na2HPO4/KH2PO4 pH 7.5 in a final volume of 200 μl. […] The reaction was stopped by rapid filtration through GF/B filters (pre-soaked for 2 hours with 0.3% polyethyleneimine) followed by 3 ice cold binding buffer washes. The filter-bound radioactivity was measured in a liquid scintillation counter with 50 μl of scintillation fluid.
Sequence of human histamine H3 receptors (Q9Y5N1 whole entry): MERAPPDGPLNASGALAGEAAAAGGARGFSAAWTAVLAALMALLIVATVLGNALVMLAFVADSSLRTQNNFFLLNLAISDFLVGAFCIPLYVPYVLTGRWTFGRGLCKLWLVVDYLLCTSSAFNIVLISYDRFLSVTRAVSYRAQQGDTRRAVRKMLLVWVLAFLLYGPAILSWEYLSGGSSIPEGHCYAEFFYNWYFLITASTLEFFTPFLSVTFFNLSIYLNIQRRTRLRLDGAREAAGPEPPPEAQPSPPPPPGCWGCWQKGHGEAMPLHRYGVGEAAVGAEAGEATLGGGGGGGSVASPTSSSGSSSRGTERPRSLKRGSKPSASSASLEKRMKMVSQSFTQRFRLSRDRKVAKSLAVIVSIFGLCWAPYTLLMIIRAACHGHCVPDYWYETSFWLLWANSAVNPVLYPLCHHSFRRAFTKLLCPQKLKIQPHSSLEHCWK

Structures are written as SMILES. Where “and” joins values, the source holds several entries; their conditions need not be identical. Identical values can stand only once. Counter-ions that a name gives are not always drawn. Where only a bound is given, the exact number is not on record here.

Sequence of CYP3A4 (P08684 whole entry, canonical isoform): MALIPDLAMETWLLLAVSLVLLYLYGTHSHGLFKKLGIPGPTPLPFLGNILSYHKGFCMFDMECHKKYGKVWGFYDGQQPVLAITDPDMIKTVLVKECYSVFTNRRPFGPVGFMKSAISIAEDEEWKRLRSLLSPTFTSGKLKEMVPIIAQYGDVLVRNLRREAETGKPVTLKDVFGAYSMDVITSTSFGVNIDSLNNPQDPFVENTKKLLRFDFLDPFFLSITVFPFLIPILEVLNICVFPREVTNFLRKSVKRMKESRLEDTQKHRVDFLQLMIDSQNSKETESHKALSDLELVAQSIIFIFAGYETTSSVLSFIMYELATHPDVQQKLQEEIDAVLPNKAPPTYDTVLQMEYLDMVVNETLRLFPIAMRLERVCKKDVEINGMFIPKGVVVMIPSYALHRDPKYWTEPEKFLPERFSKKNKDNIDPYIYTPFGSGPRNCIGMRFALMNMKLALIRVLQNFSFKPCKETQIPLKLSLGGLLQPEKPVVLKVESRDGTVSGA
Sequence of CYP2D6 (P10635 whole entry): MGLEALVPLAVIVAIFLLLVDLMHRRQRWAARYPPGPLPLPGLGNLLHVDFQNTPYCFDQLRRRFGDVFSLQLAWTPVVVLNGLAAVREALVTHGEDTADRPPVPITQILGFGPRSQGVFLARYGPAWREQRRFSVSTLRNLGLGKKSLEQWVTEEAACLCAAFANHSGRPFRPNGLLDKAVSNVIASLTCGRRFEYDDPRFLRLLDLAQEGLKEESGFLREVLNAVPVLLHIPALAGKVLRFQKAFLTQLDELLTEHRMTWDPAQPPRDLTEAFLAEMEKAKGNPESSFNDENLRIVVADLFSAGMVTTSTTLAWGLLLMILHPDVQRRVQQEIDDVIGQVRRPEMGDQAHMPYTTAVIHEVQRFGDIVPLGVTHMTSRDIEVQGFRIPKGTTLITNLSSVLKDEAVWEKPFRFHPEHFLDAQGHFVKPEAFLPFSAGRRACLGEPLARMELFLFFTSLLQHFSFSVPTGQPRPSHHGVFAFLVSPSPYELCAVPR

For the compound `C[C@H]1C[C@H](C)CN(CCCOc2ccc(C(=O)N(C)C)cc2)C1` (relative stereo) [Example 1, trans-1-{3-[4-(N,N-dimethylcarbamoyl)phenoxy]propyl}-3,5-dimethylpiperidine], the IC50 on CYP3A4 was 32 µM; on CYP2D6, greater than 10 µM. The compound also showed an inhibitory constant (Ki) in data set [1] of 2900 pM.
In the case of `C[C@@H]1C[C@@H](C)CN(CCCOc2ccc(C3=NCCC3)cc2)C1` (relative stereo) [Example 17, trans-1-{3-[4-(4,5-dihydro-3H-pyrrol-2-yl)phenoxy]propyl}-3,5-dimethylpiperidine], the affinity in data set [1] corresponds to a Ki of 430 pM.
Consider `C[C@H]1CCCN(CCCOc2ccc(C3CCC(N4CCOCC4)CC3)cc2)C1` (single isomer, unassigned) [Example 41, dihydrochloride], for which the IC50 on CYP3A4 was > 1 µM and 13 µM; on CYP2D6 it was > 10 µM and 14 µM. Besides, the Ki in data set [1] is 130 pM.
For `O=C(c1ccccc1)c1ccc(OCCCN2CCCCC2)cc1` [Example 3], the half-maximal inhibitory concentration (IC50) is 18 µM on CYP3A4 and 32 µM at CYP2D6. Also, in data set [1], the inhibition constant Ki turned out to be 1100 pM.
In the case of `CCCC(O)(CCC)c1ccc(OCCCN2CCCCC2)cc1` [Example 7, 1-{3-[4-(1-hydroxy-1-propylbutyl)phenoxy]propyl}piperidine], the concentration for half-maximal inhibition (IC50) was 4 µM on CYP3A4 and 39 µM on CYP2D6. Moreover, the affinity in data set [1], expressed as Ki, was 740 pM.
In the same order, the values of `OC1(c2ccc(OCCCN3CCCCC3)cc2)CCCC1` [Example 8, 1-{3-[4-(1-hydroxycyclopentyl)phenoxy]propyl}piperidine] are 20 µM, greater than 100 µM and 820 pM.
For the compound `Cc1ccccc1-c1ccc(OCCCN2CCCCC2)cc1` [Example 28, 1-{3-[(2′-methylbiphenyl-4-yl)oxy]propyl}piperidine], the concentration for half-maximal inhibition (IC50) on CYP3A4 (human, recombinant human CYP3A4, probe BFC) came out at 10 µM; at CYP2D6 (human, recombinant human CYP2D6, probe AMMC), 10 µM. This compound came in with a Ki in data set [1] of 530 pM.
For `c1cc(-c2ccc(OCCCN3CCCCC3)cc2)cs1` [Example 29, 1-{3-[4-(3-thienyl)phenoxy]propyl}piperidine], the figures for the concentration for half-maximal inhibition (IC50) at CYP3A4 and on CYP2D6 were greater than 100 µM and 24 µM, respectively. This compound gave an inhibition constant Ki in data set [1] of 880 pM.
In the same order, the values of `c1cncc(-c2ccc(OCCCN3CCCCC3)cc2)c1` [Example 32, 1-{3-[4-(3-pyridyl)phenoxy]propyl}piperidine] are 9 µM, 7 µM and 220 pM.
In the same order, the values of `c1cc(-c2ccc(OCCCN3CCCCC3)cc2)ccc1OCCCN1CCCCC1` [Example 35, di-1,1′-{(biphenyl-4,4′-diyl)bis[oxy(propan-1,3-diyl)]}piperidine] are 5 µM, 71 µM and 100 pM.
Regarding `C[C@H]1C[C@H](C)CN(CCCOc2ccc([C@H]3CC[C@H](N)CC3)cc2)C1` [Example 49, (3S,5S)-1-{3-[4-(trans-4-aminocyclohex-1-yl)phenoxy]propyl}-3,5-dimethylpiperidine], the IC50 is 27 µM at CYP3A4 and greater than 10 µM at CYP2D6.
On to `C[C@H]1CCCN(CCCOc2ccc(-c3cc[n+]([O-])cc3)cc2)C1` [Example 51, (3S)-4-{4-[3-(3-methylpiperidin-1-yl)propoxy]phenyl}pyridine 1-oxide], for which the IC50 on CYP3A4 is 72 µM; on CYP2D6, greater than 100 µM.
In the same order, the values of `[O-][n+]1ccc(-c2ccc(OCCCN3CCCCC3)cc2)cc1` [Example 53, 4-[4-(3-piperidinopropoxy)phenyl]pyridine 1-oxide] are 57 µM and 64 µM.
As for `Cc1cc(-c2ccc(OCCCN3CCC[C@H](C)C3)cc2)cc[n+]1[O-]` [Example 54, 2-methyl-4-(4-{3-[(3S)-3-methylpiperidin-1-yl]propoxy}phenyl)pyridine 1-oxide], the figures for the IC50 at CYP3A4 and on CYP2D6 were greater than 1 µM and greater than 10 µM, respectively. The compound further had an inhibition constant (Ki) in data set [1] of 400 pM.
As for `C[C@H]1CCCN(CCCOc2ccc(-c3cc[n+](C)cc3)cc2)C1` [Example 57, 1-methyl-4-(4-{3-[(3S)-3-methylpiperidin-1-yl]propoxy}phenyl)pyridinium], the IC50 on CYP3A4 and at CYP2D6 was greater than 10 µM each time.
As for `C[C@H]1CCCN(CCCOc2ccc(-c3ccnc(OCCCN4CCCCC4)c3)cc2)C1` [Example 58, 2-(3-piperidinopropoxy)-4-(4-{3-[(3S)-3-methylpiperidin-1-yl]propoxy}phenyl)-pyridine], the 50% inhibitory concentration (IC50) at CYP3A4 and on CYP2D6 was greater than 10 µM each time. Moreover, in data set [1], the Ki worked out at 61 pM.
Regarding `OC1CCC(c2ccc(OCCCN3CCCCC3)cc2)CC1` (stereo not shown) [Example 60, 1-{3-[4-(4-hydroxycyclohexyl)phenoxy]propyl}piperidine], the IC50 on CYP3A4 and on CYP2D6 was greater than 10 µM throughout.
On to `C[C@H]1CCCN(CCCOc2ccc([C@H]3CC[C@H](O)CC3)cc2)C1` [Example 61, (3S)-1-{3-[trans-4-(4-hydroxycyclohexyl)phenoxy]propyl}-3-methylpiperidine], for which the IC50 at CYP3A4 and at CYP2D6 was greater than 10 µM in each case.
In data set [1], `C[C@H]1CCCN(CCCOc2ccc([C@H]3CC[C@H](O)CC3)cc2)C1` [Example 62, (3S)-1-{3-[4-(4-hydroxycyclohexyl)phenoxy]propyl}-3-methylpiperidine] had an inhibitory constant (Ki) of 554 pM.
`O[C@H]1CC[C@H](c2ccc(OCCCN3CCCC3)cc2)CC1` [Example 63, 1-{3-[trans-4-(4-hydroxycyclohexyl)phenoxy]propyl}pyrrolidine]: the IC50 at CYP3A4 and at CYP2D6 was greater than 10 µM in each case.
`C[C@H]1CCCN(CCCOc2ccc(C3CCC(C)(O)CC3)cc2)C1` (stereo partly drawn) [Example 64, (3S)-1-{3-[4-(4-hydroxy-4-methylcyclohexyl)phenoxy]propyl}-3-methylpiperidine]: the concentration for half-maximal inhibition (IC50) on CYP3A4 and at CYP2D6 was greater than 10 µM each time.
Take `O[C@H]1CC[C@H](c2ccc(OCCCN3CCCCC3)cc2)CC1` [Example 65, 1-{3-[trans-4-(4-hydroxycyclohexyl)phenoxy]propyl}piperidine]: the IC50 at CYP3A4 and on CYP2D6 was greater than 10 µM in each case.
Turning to `CC1CCCN1CCCOc1ccc([C@H]2CC[C@H](O)CC2)cc1` (stereo partly drawn) [Example 66, 1-{3-[trans-4-(4-hydroxycyclohexyl)phenoxy]propyl}-2-methylpyrrolidine], the IC50 on CYP3A4 and at CYP2D6 was greater than 10 µM each time. For the same compound, in data set [1], affinity was put at a Ki of 830 pM.
Consider `CN1CCC(OCc2ccc(OCCCN3CCCCC3)cc2)CC1` [Example 67, 1-methyl-4-[4-(3-piperidinopropoxy)benzyloxy]piperidine], for which the IC50 on CYP3A4 and on CYP2D6 was greater than 10 µM each time.
For the compound `CN1CCC(COCc2ccc(OCCCN3CCCCC3)cc2)CC1` [Example 68, 1-methyl-4-[4-(3-piperidinopropoxy)benzyloxymethyl]piperidine], the IC50 at CYP3A4 and at CYP2D6 was greater than 10 µM throughout.
`CN1CCC(CCOCc2ccc(OCCCN3CCCCC3)cc2)CC1` [Example 69, 1-methyl-4-{2-[4-(3-piperidinopropoxy)benzyloxy]ethyl}piperidine]: the 50% inhibitory concentration (IC50) at CYP3A4 and on CYP2D6 was greater than 10 µM in each case. In addition, affinity in data set [1] was put at a Ki of 1190 pM.
In data set [1], `CCN1CCCC(OCc2ccc(OCCCN3CCCCC3)cc2)C1` (stereo not shown) [Example 70, 1-ethyl-3-[4-(3-piperidinopropoxy)benzyloxy]piperidine] showed an inhibition constant Ki of 350 pM.

As usually defined, the IC50 is the concentration that gives 50% inhibition. Usually Ki stands for a dissociation constant, usually derived from enzyme kinetics or from competition with a known ligand. A higher Ki goes with weaker binding.

The values are drawn from US8076329B2, “Histamine H3-receptor ligands and their therapeutic applications” (Bioprojet, priority 2005, dated 2011).
